According to the NIST ThermoML archive (doi:10.1016/j.fluid.2006.09.019):

Settings: Liquid

COC(=O)CO [methyl hydroxyethanoate]
Settings | vapor or sublimation pressure [kPa]
293.23 K | 0.4864
303.17 K | 0.8459
313.27 K | 1.409
323.12 K | 2.311
333.28 K | 3.738
343.26 K | 5.905
353.25 K | 9.292
